According to US8221736B2, “Semiochemical” (Rothamsted Research Limited, priority 1999, dated 2012):
Marks after values point to notes of the source that are not given here.

Experiments:
[1] = test system: seven-spot ladybird, Coccinella seplempunclata; experiment: Olfactometer assay with seven-spot ladybird; format: in vivo; conditions: 0.5 μl microcaps, position noted every 2 min for 20 min, 8 replicates; control arms 2.4±0.69; P<0.005
Source text: Since semiochemicals acting as repellents or inhibitors of host attractancy for herbivorous insects are often involved in predation or parasitism, the activity of cis-jasmone was also investigated at higher trophic levels. […] These experiments indicate a behavioural role for cis-jasmone in influencing interactions between plants, herbivorous insects and their predators and parasitoids. Apparatus and methodology were similar to that employed for aphids (above). The test compound was applied in 0.5 μl microcaps (Drummond Sci. Co.) at the end of one of the side arms and each arm was supplied with moist filter paper to minimize differences in relative humidity. Individual C. septempunctata were introduced into the centre of the arena and their positions noted every 2 min for 20 min. The experiment was replicated 8 times and results analysed as above.

[2] = test system: cereal aphids (predominantly Metropolophium dirhodum) on winter wheat, Triticum aestivum; experiment: Field study of cereal aphids on sprayed winter wheat plots; format: in vivo; conditions: sprayed 50 g a.i./ha on 5 May and 11 Jun. 1999
Source text: The data have been transformed back from the logs to ease presentation. […] The predominant aphid species was Metropolophium dirhodum, the rose-grain aphid. S. avenae and Rhopalosiphum padi were also present, but numbers were very low. […] Plots (6 m×6 m) of winter wheat, Triticum aestivum (cv Consort), were arranged in a 5×5 quasi-complete Latin square design. The five cis-jasmone treated plots were sprayed on 5 May and 11 Jun. 1999, using a hand-held hydraulic device, at a rate of 50 g active ingredient/ha in 200 l/ha of aqueous […] BV (0.1%). Control plots were untreated. […] At each count, five tillers were inspected at 12 separate sites on two diagonal transects totalling 60 tillers per plot. Transformed data (y=log(y+1)) were subjected to ANOVA and the sums of squares of the treatments were partitioned to test for significant differences.

[3] = test system: hop aphid, Phorodon humuli; experiment: Preliminary field trials, yellow water traps, hop aphid summer morphs; format: in vivo; conditions: slow release 2.05 μg/day/trap; P<0.04
[4] = test system: aphid parasitoid Aphidius ervi; experiment: Wind tunnel responses of A. ervi to V. faba plants exposed to the compound; format: in vivo
Protocol: A possible role for the compound as an airborne plant signal was investigated using the broad bean, V. faba (cv The Sutton). Plants were kept for 24 hours in clean air or in air incorporating cis-jasmone at 100 μg/l; subsequently, samples of volatiles released by the plants were obtained by entrainment over 4 periods of 48 hours, i.e. up to 192 hours after the end of the treatment. The cis-jasmone itself was undetectable after 48 hours. […] There was also, from some replicates, enhancement of (E,E)-α-farnesene, (−)-β-caryophyllene and (E)-4,8-dimethyl-1,3,7-nonatriene. These compounds have all been implicated in herbivorous insect-induced production and increased parasitoid foraging. The nonatriene can also be produced innately by plants imitating damage for defence against herbivores and which are thus attractive to parasitoids.
Naive female A. ervi were flown in a wind tunnel, as described in J. Chem. Ecol. 16, 381-396 (1996) (Poppy et al.). The parasitoids were released 25 cm downwind (single choice tests) or 40 cm downwind (dual choice test) of the target, which was either a plant or a synthetic compound (10 μg in 10 μl hexane) placed on a 2×1 cm strip of filter paper (Whatman No. 1) surrounded by a ring of green crêpe paper. The proportions of parasitoids responding with an oriented flight to the synthetic chemicals were calculated each day on 3 separate days. These values were then subjected to a logit transformation to normalize the data before being analysed by ANOVA followed by Tukey post-hoc tests. The number of parasitoids orienting upwind to the single plant target were recorded and subjected to a χ^2 contingency test (Pearson method on Genstat—see Genstat 5 Committee. Genstat 5 Reference Manual, Release 3 (Clarendon Press, Oxford, 1993)) to determine whether an orienting response was linked to the type of plant treatment. The numbers orienting to each plant in the dual choice test were analysed by a χ^2 to determine whether one plant was more attractive than the other. […]

[5] = test system: aphid parasitoid Aphidius ervi; experiment: Wind tunnel single choice test of A. ervi with synthetic compounds on filter paper; format: in vivo; conditions: 10 μg on filter paper, hexane control 26.7
Source text: Since semiochemicals acting as repellents or inhibitors of host attractancy for herbivorous insects are often involved in predation or parasitism, the activity of cis-jasmone was also investigated at higher trophic levels. […] These experiments indicate a behavioural role for cis-jasmone in influencing interactions between plants, herbivorous insects and their predators and parasitoids. Naive female A. ervi were flown in a wind tunnel, as described in J. Chem. Ecol. 16, 381-396 (1996) (Poppy et al.). The parasitoids were released 25 cm downwind (single choice tests) or 40 cm downwind (dual choice test) of the target, which was either a plant or a synthetic compound (10 μg in 10 μl hexane) placed on a 2×1 cm strip of filter paper (Whatman No. 1) surrounded by a ring of green crêpe paper. The proportions of parasitoids responding with an oriented flight to the synthetic chemicals were calculated each day on 3 separate days. These values were then subjected to a logit transformation to normalize the data before being analysed by ANOVA followed by Tukey post-hoc tests. The number of parasitoids orienting upwind to the single plant target were recorded and subjected to a χ^2 contingency test (Pearson method on Genstat—see Genstat 5 Committee. Genstat 5 Reference Manual, Release 3 (Clarendon Press, Oxford, 1993)) to determine whether an orienting response was linked to the type of plant treatment. The numbers orienting to each plant in the dual choice test were analysed by a χ^2 to determine whether one plant was more attractive than the other.

adult Lepidoptera = conditions: U.S. Pat. No. 5,665,344; cited from earlier work

With CC/C=C\CC1=C(C)CCC1=O [cis-jasmone] the “mean number of observations in the treated arm” value [1] was 4.1±1.55, the “numbers of parasitized aphids, treated versus untreated plots” value [2] was “no significant difference” and the “numbers of cereal aphids per 60 tillers, treated versus untreated plots” value ([2]; five sampling dates, significant on last two dates) was “consistently lower”. The “reduction of catches in water traps with visual (yellow) attractancy” value [3] was 40%, the “% showing oriented flight” value ([4]; V. faba plants 48 hr after exposure (100 μg/l in air), single choice test, hexane control 20, P<0.01) was 44% and the “parasitoids oriented towards the treated plant compared to the control” value ([4]; dual choice test of treated or untreated plants) was “over 3 times”. The “% oriented to treated plant” value ([4]; dual choice test, treated plant versus control plant, 48 hr after exposure (100 μg/l in air), control plant 10, P<0.05) was 32%, the “% showing oriented flight” value [5] was 53.1^a % and the “behavioural effect on adult Lepidoptera” value (adult Lepidoptera) was “attract adult Lepidoptera”.
